Experiment [1] concerns the target K-Ras^G12C : hSOS1 interaction (Homo sapiens, UniProt Q07889). The experiment can be described thus: Biochemical assay 1: K-Ras^G12C interaction assay with hSOS1 (HTRF). The format is binding. As to conditions: read-out: Assay 1 (KRAS-SOS Interaction) activity expressed as IC50. (In TR-FRET formats the signal depends on donor and acceptor labels being close together.)

Experiment [2] concerns the target Epidermal Growth Factor Receptor (EGFR) (Homo sapiens (Human), UniProt P00533). The experiment can be described thus: EGFR kinase assay (TR-FRET). As to conditions: values given in μM; read-out: EGFR kinase inhibition IC50. The class given is biochemical. The procedure, abridged: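 Read-out is the 665/620 nm HTRF ratio, from a Tb-cryptate anti-phosphotyrosine antibody and streptavidin-XL665 bound to phosphorylated biotin-peptide substrate. The enzyme, A431-derived EGFR (~3 U/ml), was given 15 min compound pre-binding at 22° C in Hepes pH 7.0 with Mg2+/Mn2+ before reaction.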

Here are results for five compounds from patent publication US20240083857A1, “2-Methyl-Quinazolines” (Bayer Pharma Aktiengesellschaft, priority 2017, published 2024).

The structures appear in SMILES notation. A value given as a limit tells only on which side of the number the result lay.

Broadly, the IC50 is the concentration that gives 50% inhibition.

Sequence of Epidermal Growth Factor Receptor (EGFR) (P00533 25-1210): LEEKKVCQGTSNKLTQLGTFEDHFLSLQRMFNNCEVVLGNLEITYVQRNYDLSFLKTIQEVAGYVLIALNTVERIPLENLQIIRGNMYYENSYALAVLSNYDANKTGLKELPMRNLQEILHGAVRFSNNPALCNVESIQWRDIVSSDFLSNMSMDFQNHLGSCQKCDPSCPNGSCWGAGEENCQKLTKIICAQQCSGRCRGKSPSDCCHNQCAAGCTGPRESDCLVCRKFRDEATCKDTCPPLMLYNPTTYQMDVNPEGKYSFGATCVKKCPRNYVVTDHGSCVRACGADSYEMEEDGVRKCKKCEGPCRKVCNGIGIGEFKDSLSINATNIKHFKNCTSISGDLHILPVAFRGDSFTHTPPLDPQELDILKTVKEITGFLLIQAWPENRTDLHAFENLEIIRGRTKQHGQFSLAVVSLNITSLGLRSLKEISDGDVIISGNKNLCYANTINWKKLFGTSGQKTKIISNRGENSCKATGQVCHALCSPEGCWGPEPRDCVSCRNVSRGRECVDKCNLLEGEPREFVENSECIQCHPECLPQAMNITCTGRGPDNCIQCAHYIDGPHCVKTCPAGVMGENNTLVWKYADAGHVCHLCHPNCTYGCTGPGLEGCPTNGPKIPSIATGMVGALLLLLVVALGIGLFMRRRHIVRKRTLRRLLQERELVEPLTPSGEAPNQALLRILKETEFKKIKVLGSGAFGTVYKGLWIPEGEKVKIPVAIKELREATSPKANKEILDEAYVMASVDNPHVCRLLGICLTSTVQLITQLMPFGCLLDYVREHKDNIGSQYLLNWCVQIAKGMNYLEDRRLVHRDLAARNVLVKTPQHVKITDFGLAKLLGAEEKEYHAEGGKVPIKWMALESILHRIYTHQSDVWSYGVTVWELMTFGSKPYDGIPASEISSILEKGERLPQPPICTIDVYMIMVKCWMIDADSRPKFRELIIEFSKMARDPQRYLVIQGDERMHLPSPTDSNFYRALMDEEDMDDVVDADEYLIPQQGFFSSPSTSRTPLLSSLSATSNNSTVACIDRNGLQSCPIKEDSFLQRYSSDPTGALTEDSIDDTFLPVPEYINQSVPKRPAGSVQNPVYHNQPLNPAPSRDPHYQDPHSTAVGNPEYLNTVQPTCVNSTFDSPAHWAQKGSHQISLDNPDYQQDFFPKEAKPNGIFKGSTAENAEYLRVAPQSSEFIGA

On to `COc1cc2nc(C)nc(N[C@H](C)c3cccc(-c4cn[nH]c4)c3)c2cc1OC(C)C` [Example 353, 7-methoxy-2-methyl-6-(propan-2-yloxy)-N-{(1R)-1-[3-(1H-pyrazol-4-yl)phenyl]ethyl}quinazolin-4-amine], for which the concentration for half-maximal inhibition (IC50) in experiment [1] is 360 nM; in experiment [2], more than 20 µM.

Consider `Cc1nc(N[C@H](C)c2ccccc2)c2cc(N=S(C)(C)=O)ccc2n1` [Example 30, 6-{[dimethyl(oxido)-lambda6-sulfanylidene]amino}-2-methyl-N-[(1R)-1-phenylethyl]quinazolin-4-amine], for which the IC50 in experiment [1] is 1340 nM; in experiment [2], more than 20 µM.

Regarding `COCCOc1cc2c(N[C@H](C)c3cccc(-c4cn[nH]c4)c3)nc(C)nc2cc1OC` [Example 348, 7-methoxy-6-(2-methoxyethoxy)-2-methyl-N-{(1R)-1-[3-(1H-pyrazol-4-yl)phenyl]-ethyl}quinazolin-4-amine], the IC50 was 693 nM in experiment [1] and more than 20 µM in experiment [2].

For the compound `CCOc1cc2c(N[C@H](C)c3cccc(-c4cnn(CC)c4)c3)nc(C)nc2cc1OC` [Example 356, 6-ethoxy-N-{(1R)-1-[3-(1-ethyl-1H-pyrazol-4-yl)phenyl]ethyl}-7-methoxy-2-methylquinazolin-4-amine], the IC50 in experiment [1] was 655 nM; in experiment [2] it was more than 20 µM.

With `CCCCOc1cc2c(N[C@H](C)c3cccc(-c4cn[nH]c4)c3)nc(C)nc2cc1OC` [Example 350, 6-butoxy-7-methoxy-2-methyl-N-{(1R)-1-[3-(1H-pyrazol-4-yl)phenyl]ethyl}quinazolin-4-amine], the figures for the half-maximal inhibitory concentration (IC50) in experiment [1] and in experiment [2] were 688 nM and more than 20 µM, respectively.
